Source: paper PMC7532674, “Synthesis and preliminary studies of ^11C-labeled tetrahydro-1,7-naphthyridine-2-carboxamides for PET imaging of metabotropic glutamate receptor 2” (Theranostics, 2020)

How the values were obtained:
[1] = biological target: T1, human mGlu2 (Homo sapiens, UniProt Q14416); experiment: Human mGlu2 GIRK thallium flux assay; assay type: cell-based; settings: HEK293 cells, EC80 glutamate, triplicate assays (14g duplicate)
T1 construct: expressed in transfected cells
Protocol: (§1) Cell Line Generation and Thallium Flux Assays. The general procedure for the preparation of human mGlu2 and mGlu3 was described previously, [56] with minor modifications in this work. The cloning sites were NheI/NotI for both receptors. HEK GIRK cells, generously provided by Lily Jan (University of California San Francisco, San Francisco, CA), were transfected with 24 μg of DNA using Fugene6 (Promega), stable transfectants were selected with 1 μg/mL puromycin dihydrochloride (Sigma-Aldrich, St. Louis, MO), and polyclonal human mGlu2 GIRK and mGlu3 GIRK cell lines were established. Cells were maintained following selection in 45% DMEM, 45% Ham's F12, 10% FBS, 100 units/mL penicillin/streptomycin, 20 mM HEPES, pH 7.3, 1 mM sodium pyruvate, 2 mM glutamine, 700 μg/mL G418 (Mediatech, Inc., Herndon, VA), and […] puromycin (growth media) at 37 °C in the presence of 5% CO2. All cell culture reagents were purchased from Invitrogen Corp. (Carlsbad, CA) unless otherwise noted.
(§2) Human mGlu2 and mGlu3 Thallium Flux in Vitro Assays. Potencies of these NAMs at both mGlu2 and mGlu3 were investigated by thallium flux through GIRK channels, which was disclosed in detail as well as described in our previous work. In particular, cells were plated into 384-well, black-walled, clear-bottomed poly(D-lysine_-coated plates at a density of 15 000 cells per well in 20 μL of DMEM containing 10% dialyzed FBS, 20 mM HEPES, and 100 units/mL penicillin/streptomycin (assay media). Plated cells were incubated overnight at 37 °C in the presence of 5% CO2. The next day, the medium was exchanged from the cells to assay buffer [Hanks' balanced salt solution (Invitrogen) containing 20 mM HEPES, pH 7.3] using an ELX405 microplate washer (BioTek), leaving 20 μL per well, followed by the addition of 20 μL per well of FluoZin2-AM (330 nM final concentration) indicator dye (Invitrogen; prepared as a stock in DMSO and mixed in a 1:1 ratio with Pluronic acid F-127) in assay buffer. Cells were incubated for 1 h at room temperature, and the dye was exchanged to assay buffer using an ELX405, leaving 20 μL per well. For concentration-response curve experiments, compounds were serially diluted 1:3 into 10 point concentration-response curves and were transferred to daughter plates using an Echo acoustic plate reformatter (Labcyte, Sunnyvale, CA). Test compounds were diluted to 2 times their final desired concentration in assay buffer (0.3% DMSO final concentration). Agonists were diluted in thallium buffer [125 mM sodium bicarbonate (added fresh the morning of the experiment), 1 mM magnesium sulfate, 1.8 mM calcium sulfate, 5 mM glucose, 12 mM thallium sulfate, and 10 mM HEPES, pH 7.3] at 5 times the final concentration to be assayed. Cell plates and compound plates were loaded onto a kinetic imaging plate reader (FDSS 6000 or 7000; Hamamatsu Corporation, Bridgewater, NJ). Appropriate baseline readings were taken (10 images at 1 Hz; excitation, 470 ± 20 nm; emission, 540 ± 30 nm), and test compounds were added in a 20 μL volume and incubated for approximately 1 h at room temperature before the addition of 10 μL of thallium buffer with or without an EC80 concentration of the agonist glutamate for affinity evaluation experiments or with a full concentration-response of glutamate for Schild analysis experiments. After the addition of agonist, data were collected for approximately an additional 2.5 min. Data were analyzed using Excel (Microsoft Corp, Redmond, WA). The slope of the fluorescence increase beginning 5 s after thallium/agonist addition and ending 15 s after thallium/agonist addition was calculated, corrected to vehicle and maximal agonist control slope values, and plotted using either XLfit (ID Business Solutions Ltd.) or Prism software (GraphPad Software, San Diego, CA) to generate concentration-response curves. Potencies were calculated from fits using a four-point parameter logistic equation.

[2] = biological target: T2, human mGlu3 (Homo sapiens, UniProt Q14832); experiment: Human mGlu3 GIRK thallium flux assay; assay type: cell-based; settings: HEK293 cells, triplicate assays (14g duplicate)
T2 construct: expressed in transfected cells
Protocol: as §1, §2

[3] = biological target: T3, mGlu2 (Rattus norvegicus, UniProt P31421); experiment: Dynamic PET imaging in rat brain; assay type: in vivo, SD rats; set-up: from tissue; host or cells: brain of living SD rats
Protocol: As we previously reported, PET scans were carried out by an Inveon PET scanner (Siemens Medical Solutions, Knoxville, TN, USA). During the scan, SD rats were anesthetized by oxygen mixed with 1-2% (v/v) isoflurane and kept body temperature at […] by a commercially available circulation system (T/Pump TP401, Gaymar Industries, Orchard Park, NY). A 24-gauge catheter was inserted into the tail vein to facilitate a bolus injection. The radiotracer [^11C]14a or [^11C]14b (ca. 1 mCi / 150-200 μL) was injected into the rat via the preinstalled catheter, and the dynamic acquisition of PET signals in rat brain was started at the same time and lasted for 60 min in 3D list mode. For pretreatment studies, 14a (1 mg/kg for [^11C]14a for self-blocking study in Figure S2; 3 mg/kg for [^11C]14b for blocking study in Figure S12C) or 14b (1 mg/kg for [^11C]14b for self-blocking study in Figure S12B), formulated in 300 μL of saline containing 10% ethanol and 5% Tween 80, was injected at 30 min via the tail vein catheter prior to the injection of [^11C]14a or [^11C]14b. The dynamic emission data were reconstructed by filtered back projection using Hanning's filter with a Nyquist cutoff of 0.5 cycle/pixel into 33 frames (10 s × twelve frames, 20 s × three frames, 30 s × three frames, 60 s × three frames, 150 s × three frames, and 300 s × nine frames). The TACs of [^11C]14a or [^11C]14b were analyzed from volumes of interest in the striatum, hippocampus, cortex, thalamus, pons and cerebellum normalized to a rat brain MRI template using PMOD software (version 3.4; PMOD technology, Zurich, Switzerland). The radioactivity was decay-corrected to the injection time and expressed as the standardized uptake value (SUV) which equals to (radioactivity per milliliter of tissue per injected radioactivity) × (gram of body weight). To obtain non-displaceable binding potential (BPND), simplified reference tissue model (SRTM), [54] was carried out on the basis of kinetic analysis using PMOD software. We acquired BP-parametric images using kinetic modeling without masking. Respective TACs in receptor-rich or -poor region were loaded for production of BP-map with default setting. Representative parametric images scaled with BPND were reconstructed by PMOD software using TACs in mGlu2-enriched and reference regions. Pons was selected as the reference region for mGlu2 (the lowest and consistent brain uptake and washout kinetics between baseline and blocking conditions). It should be noted that while there is a low-level expression of mGlu2 in the pons, it is not without existence. A reference region should be a region devoid of the target, but with similar tracer transport or diffusion to the other regions of interest with expression of the target. Therefore, there are some limitations when using pons as the reference region. For example, the partial volume effect in PET likely leads to spillover of activity from nearby higher uptake regions into the pons, artificially increasing the time-activity curve in the pons.

[4] = biological target: T3, mGlu2; experiment: In vitro autoradiography in rat brain sections; assay type: binding; set-up: from tissue; host or cells: Sprague-Dawley rat brain sections; settings: preincubated with unlabeled QCA, 14b or 14a at 10 µM
Protocol: Sagittal rat brain slices were prepared into 20 μm sections with a cryostat (HM560; Carl Zeiss, Oberkochen, Germany), mounted on air plasma spray-coated glass slides, and stored at -80 °C before used for experiments. The sections were preincubated for 15 min in a glass tank containing 200 mL of Tris·HCl buffer (50 mM, pH 7.4) consisting of 2 mM of MgCl2 and 1.2 mM of CaCl2 at room temperature. After preincubation, the sections were incubated in a fresh buffer containing [^11C]14a or [^11C]14b (250 µCi in 200 mL buffer; molar activity 2.7 Ci/µmol of [^11C]14a and 2.5 Ci/µmol of [^11C]14b, respectively) in the glass tank for 30 min at room temperature. For blocking studies, non-radioactive 14a or 14b (10 μM) and QCA (10 μM) were chosen to determine the specificity of radiotracers for binding mGlu2. Six serial brain sections were used for each conditions. After incubation, brain sections were washed with cold buffer (3 × 5 min), immersed in cold distilled water, and then dried with cold air. The sections were placed in contact with imaging plates (BAS-MS2025, FUJIFILM, Tokyo, Japan). Autoradiograms were obtained and photostimulated luminescence (PSL) values in the ROIs were measured using a Bio-Imaging Analyzer System (BAS5000, FUJIFILM).

[5] = test system: mGlu2; settings: cited from earlier work

T1 sequence (Q14416 19-872): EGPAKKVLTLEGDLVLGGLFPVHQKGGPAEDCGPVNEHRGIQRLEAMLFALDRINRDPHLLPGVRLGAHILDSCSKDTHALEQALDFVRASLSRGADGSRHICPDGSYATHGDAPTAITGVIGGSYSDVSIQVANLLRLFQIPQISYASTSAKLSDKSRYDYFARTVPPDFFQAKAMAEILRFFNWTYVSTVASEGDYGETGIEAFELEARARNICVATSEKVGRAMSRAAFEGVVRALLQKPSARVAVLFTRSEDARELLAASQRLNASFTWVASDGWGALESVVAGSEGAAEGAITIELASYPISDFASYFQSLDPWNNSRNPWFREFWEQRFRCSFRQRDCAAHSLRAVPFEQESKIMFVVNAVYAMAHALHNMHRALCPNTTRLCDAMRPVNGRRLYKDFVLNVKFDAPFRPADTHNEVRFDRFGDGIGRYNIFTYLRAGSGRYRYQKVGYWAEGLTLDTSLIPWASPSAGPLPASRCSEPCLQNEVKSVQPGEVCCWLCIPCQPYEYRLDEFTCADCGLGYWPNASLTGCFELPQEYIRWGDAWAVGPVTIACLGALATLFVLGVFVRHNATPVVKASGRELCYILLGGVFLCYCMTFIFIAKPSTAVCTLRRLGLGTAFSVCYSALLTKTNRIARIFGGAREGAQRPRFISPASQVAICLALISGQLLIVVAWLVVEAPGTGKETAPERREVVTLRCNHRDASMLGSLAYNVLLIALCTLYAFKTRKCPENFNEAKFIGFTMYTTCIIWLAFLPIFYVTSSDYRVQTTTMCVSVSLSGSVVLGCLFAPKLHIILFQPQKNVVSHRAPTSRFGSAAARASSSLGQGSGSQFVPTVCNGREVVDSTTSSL
T2 sequence (Q14832 23-879): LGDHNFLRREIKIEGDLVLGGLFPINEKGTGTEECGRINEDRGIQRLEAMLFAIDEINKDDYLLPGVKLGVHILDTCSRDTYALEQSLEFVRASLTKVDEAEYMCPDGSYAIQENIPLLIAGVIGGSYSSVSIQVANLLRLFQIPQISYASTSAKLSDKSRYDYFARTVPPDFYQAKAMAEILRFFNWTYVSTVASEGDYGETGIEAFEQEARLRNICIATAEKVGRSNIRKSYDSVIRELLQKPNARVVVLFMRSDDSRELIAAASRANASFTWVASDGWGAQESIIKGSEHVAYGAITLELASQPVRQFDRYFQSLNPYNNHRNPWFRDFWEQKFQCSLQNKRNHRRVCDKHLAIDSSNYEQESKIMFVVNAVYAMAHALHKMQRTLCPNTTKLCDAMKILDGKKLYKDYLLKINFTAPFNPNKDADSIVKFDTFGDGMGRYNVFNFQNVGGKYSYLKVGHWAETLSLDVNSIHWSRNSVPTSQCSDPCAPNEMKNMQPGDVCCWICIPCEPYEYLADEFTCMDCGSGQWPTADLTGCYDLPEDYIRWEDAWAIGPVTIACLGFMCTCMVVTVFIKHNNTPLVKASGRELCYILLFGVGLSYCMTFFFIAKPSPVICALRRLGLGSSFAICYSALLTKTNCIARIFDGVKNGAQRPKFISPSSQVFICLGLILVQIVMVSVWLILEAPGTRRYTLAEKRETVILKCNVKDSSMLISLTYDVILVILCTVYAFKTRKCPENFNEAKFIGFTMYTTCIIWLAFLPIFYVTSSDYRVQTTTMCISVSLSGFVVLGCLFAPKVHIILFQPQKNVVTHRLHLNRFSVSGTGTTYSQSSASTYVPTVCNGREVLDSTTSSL
T3 sequence (P31421 19-872): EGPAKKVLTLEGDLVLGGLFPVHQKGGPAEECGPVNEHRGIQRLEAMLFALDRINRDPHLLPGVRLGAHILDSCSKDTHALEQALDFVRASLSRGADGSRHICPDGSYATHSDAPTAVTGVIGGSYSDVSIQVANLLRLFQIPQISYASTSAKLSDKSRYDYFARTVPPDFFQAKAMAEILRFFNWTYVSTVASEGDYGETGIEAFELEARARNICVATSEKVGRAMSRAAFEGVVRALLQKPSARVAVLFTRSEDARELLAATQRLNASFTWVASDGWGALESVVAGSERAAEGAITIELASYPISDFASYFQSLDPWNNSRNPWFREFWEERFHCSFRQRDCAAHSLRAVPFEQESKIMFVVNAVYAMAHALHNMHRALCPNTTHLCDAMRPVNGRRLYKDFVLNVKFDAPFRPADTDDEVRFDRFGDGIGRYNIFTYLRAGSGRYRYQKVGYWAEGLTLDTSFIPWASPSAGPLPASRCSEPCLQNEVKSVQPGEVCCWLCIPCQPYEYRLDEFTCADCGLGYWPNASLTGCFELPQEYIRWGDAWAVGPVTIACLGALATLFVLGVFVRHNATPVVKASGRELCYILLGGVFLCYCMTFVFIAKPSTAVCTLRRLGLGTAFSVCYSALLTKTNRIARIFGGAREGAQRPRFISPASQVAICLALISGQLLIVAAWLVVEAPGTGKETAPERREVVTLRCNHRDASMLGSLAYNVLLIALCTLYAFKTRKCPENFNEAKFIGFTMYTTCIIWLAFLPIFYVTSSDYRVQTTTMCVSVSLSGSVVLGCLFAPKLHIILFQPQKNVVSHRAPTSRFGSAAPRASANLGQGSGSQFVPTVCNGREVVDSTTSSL

IC50 [1] | IC50 [2] | Structure (SMILES) | IC50 [5] | other results
39 nM | > 10 µM | COc1ccc(-c2cc(C(N)=O)nc3c2CCN(Cc2ccnc(OC)c2)C3)c(F)c1 [14a, 4-(2-fluoro-4-methoxyphenyl)-7-((2-methoxypyridin-4-yl)methyl)-5,6,7,8-tetrahydro-1,7-naphthyridine-2-carboxamide] | – | –
129 nM | > 10 µM | COc1cc(CN2CCc3c(-c4ccc(C)cc4F)cc(C(N)=O)nc3C2)ccn1 [14c, 4-(2-fluoro-4-methyphenyl)-7-((2-methoxypyridin-4-yl)methyl)-5,6,7,8-tetrahydro-1,7-naphthyridine-2-carboxamide] | – | –
39 nM | > 10 µM | COc1cc(CN2CCc3c(-c4ccc(F)cc4OC)cc(C(N)=O)nc3C2)ccn1 [14d, 4-(4-fluoro-2-methoxyphenyl)-7-((2-methoxypyridin-4-yl)methyl)-5,6,7,8-tetrahydro-1,7-naphthyridine-2-carboxamide] | – | –
106 nM | > 10 µM | COc1ncc(CN2CCc3c(-c4ccc(C)cc4F)cc(C(N)=O)nc3C2)cn1 [14e, 4-(2-fluoro-4-methyphenyl)-7-((2-methoxypyrimidin-5-yl)methyl)-5,6,7,8-tetrahydro-1,7-naphthyridine-2-carboxamide] | – | –
318 nM | > 10 µM | COc1ccc(-c2cc(C(N)=O)nc3c2CCN(Cc2cnc(OC)nc2)C3)c(F)c1 [14f, 4-(2-fluoro-4-methoxyphenyl)-7-((2-methoxypyrimidin-5-yl)methyl)-5,6,7,8-tetrahydro-1,7-naphthyridine-2-carboxamide] | – | –
87 nM | > 30 µM | COc1cc(CN2CCc3c(-c4ccc(F)cc4Cl)cc(C(N)=O)nc3C2)ccn1 [14g] | – | –

Second part, the compound before the results:

Structure (SMILES) | IC50 [1] | IC50 [2] | IC50 [5] | other results
COc1cc(CN2CCc3c(-c4ccc(O[11CH3])cc4F)cc(C(N)=O)nc3C2)ccn1 [[^11C]14a, 4-(2-fluoro-4-(methoxy-^11C)phenyl)-7-((2-methoxy-pyridin-4-yl)methyl)-5,6,7,8-tetrahydro-1,7-naphthyridine-2-carboxamide] | – | – | – | Peak uptake in the striatum ([3]; SD rats, at 2.5 min): 1.7 SUV; Time of peak radioactivity in brain regions ([3]; SD rats, i.v.): 2.5 min; In vivo specificity ([3]; pretreatment with 14a (1 mg/kg)): low-to-modest; Decrease of region-to-pons ratios under blocking [4]: 17-54%
[11CH3]Oc1ccc(C2CCN(c3ccn(CC4CC4)c(=O)c3C#N)CC2)cc1 [[^11C]CMDC, 1-(cyclopropylmethyl)-4-(4-[^11C]methoxyphenyl)-piperidin-1-yl-2-oxo-1,2-dihydropyridine-3-carbonitrile] | – | – | 98 nM | –
[11CH3]Oc1cccc(CC[C@@](N)(C(=O)O)[C@H]2C[C@@H]2C(=O)O)c1 [[^11C]CMG] | – | – | 94 nM | –
[11CH3]Oc1c(F)ccc(F)c1C1CCN(c2ccn3c(CC4CC4)nnc3c2Cl)CC1 [[^11C]JNJ42491293] | – | – | 7.5 nM | –
